# According to patent publication US20250034105A1, “IS[…] N-METHYL-1,3-BENZODIOXOLYLBUTANAMINE (MBDB) AND STEREOISOMERS THEREOF” (Terran Biosciences Inc., priority 2021, published 2025):
# What was measured:
# [1] = cited from earlier work
# Male Sprague-Dawley rats = assay: Rat elevated zero maze model of anxiety; type: in vivo; details: for frequency of stretched attend postures (SAPs): 30 min before 5-min test; for dose at which switch to an anxiolytic effect was shown (magnitude of reduction in SAPs): ip, rat zero maze
# From the text: The rat zero-maze model is a refined alternative to the plus-maze, the most widely used animal model of anxiety, and consists of an elevated annular platform, divided equally into four quadrants. Two opposite quadrants are enclosed by Perspex walls on both the inner and the outer edges of the platform, while the remaining two opposite quadrants are open being enclosed only by a Perspex “lip”. Animals will show a preference for the closed areas, and avoidance of the open sections is assumed to stem from a rodent's natural aversion to open, exposed spaces. A reduction in the amount of activity on the open areas is considered to reflect an increase in anxiety. The ethologically-based behavior stretched attend postures (SAP) from closed to open quadrants is assessed as an index of anxiety. Increase in SAPs is indicative of an anxiogenic effect and decreases in SAPs is indicative of an anxiolytic effect. Shepherd, J K; Grewel, S S; Fletcher, A; Bill, D J; Dourish, C T (1994) Behavioural and pharmacological validation of the elevated “zero-maze” as an animal model of anxiety. Psychopharmacol., 116:56-64.
# Male Sprague-Dawley 200-250 g (Envigo UK) rats were used. Animals were group-housed (5 per cage; cage size: 40×40×20 cm) in a temperature-controlled environment (22±2° C.), under a 12 h light-dark cycle (lights on: 08:00 hours) for one week prior to testing. Food and water were freely available. Number of animals per group=5. Animals were moved into the experimental room 16-24 hours before testing.
# The elevated 0-maze comprises a black Perspex annular platform (105 cm diameter, 10 cm width) elevated to 65 cm above ground level, divided equally into four quadrants. Two opposite quadrants are enclosed by clear red Perspex walls (27 cm high) on both the inner and outer edges of the platform, while the remaining two opposite quadrants are surrounded only by a Perspex “lip” (1 cm high) which serves as a tactile guide to animals on these open areas.
# Subjects were weighed and tail marked before being injected. After a specified pre-treatment time, subjects were placed in a closed quadrant and a 5-min test period were recorded on videotape for subsequent analysis. The maze was cleaned with 5% methanol/water solution and dried thoroughly between test sessions. Behavioural measures comprise percentage time spent on the open areas (% TO) and frequency of stretched attend postures (SAP) from closed to open quadrants. Since the control groups were all treated identically with the same vehicle these were combined to increase power. The Chlordiazepoxide groups were also treated identically with the same dose so these were also combined to increase power. Animals are scored as being in the open area when all four paws were in an open quadrant and in the closed area only when all four paws have passed over the open-closed divide. All testing were carried out between 9.00 and 16.00 hours.
# Chlordiazepoxide was formulated in Vehicle 1 (saline) to a concentration of 1.2 mg/mL to provide a dose of 6 mg/kg when administered ip in 5 mL/kg dosing volumes.
# 35 male Sprague-Dawley rats in treatment groups of 5, were intraperitoneally dosed with either Vehicle 1 (saline) or Rac-MBDB at 1 of 5 dose levels (2.5, 5, 10, 15 & 30 mg/kg) or chlordiazepoxide (6 mg/kg) in 5 mL/kg injection volumes. Thirty min later at T-0, rats were individually placed in a closed arm of the zero-maze and behavior assessed by a “blind” observer using remote video monitoring over the subsequent 5 min. The animals were then removed and the maze carefully wiped with 5% methanol/water solution before the next test was begun.
# 35 male Sprague-Dawley rats in treatment groups of 5, were intraperitoneally dosed with either Vehicle 1 (saline) or R-MBDB at 1 of 5 dose levels (2.5, 5, 10, 15 & 30 mg/kg) or chlordiazepoxide (6 mg/kg) in 5 mL/kg injection volumes. […]
# [2] = system: participants diagnosed with at least moderate post-traumatic stress disorder (PTSD); assay: Double-blind, randomized, placebo-controlled clinical trial of MBDB-assisted psychotherapy in PTSD; type: in vivo, human; details: results that "may" be observed; for change in CAPS-5 assessment compared to the placebo group: at Study Conclusion
# Description: A multicenter, randomized, double-blind, placebo-controlled trial is conducted to assess the efficacy and safety of MBDB-assisted psychotherapy versus psychotherapy with placebo control in participants diagnosed with at least moderate post-traumatic stress disorder (PTSD). Rationale
# This multicenter, randomized, double-blind, placebo-controlled trial is conducted at various sites in the United States with IRB approval from each study site. A flexible dose of MBDB hydrochloride salt or placebo, followed by a supplemental half-dose unless contraindicated by patient's previous response or medical history, is also administered during the Treatment Period with psychotherapy in at least 3 blinded monthly Experimental Sessions. The Supplemental Dose extends the duration of drug effects on the participants during an Experimental Session. MBDB test groups are further subdivided into specific groups receiving only racemic MBDB hydrochloride salt, S-MBDB hydrochloride salt, or R-MBDB hydrochloride salt. An optional Risk Evaluation and Mitigation Strategy (REMS) Protocol may be implemented for the racemic MBDB, S-MBDB, R-MBDB, and placebo-groups. The Treatment Period lasts for approximately 12 weeks. During the Treatment Period, each Experimental Session is followed by three Intervening Sessions of non-drug psychotherapy. Each Experimental Session involves an overnight stay. The Primary Outcome measure, the change in Clinician Administered PTSD Scale for DSM-5 (CAPS-5), is determined by a blinded Independent Rater (IR) pool multiple times throughout the study. The study consists of separate periods for each participant. Initially, prospective participants undergo a Screening Period involving an initial eligibility assessment, a medical history intake, informed consent, and enrollment of eligible participants. Next, a Preparation Period is undertaken for enrolled participants involving medication tapering and clinical baseline assessments to confirm each participant meets enrollment criteria. As part of the Preparation Period, a detailed assessment of co-morbidities to PTSD is recorded. Participants may remain on prescribed courses of selective serotonin reuptake inhibitor (SSRI) or serotonin and norepinephrine reuptake inhibitor (SNRI) treatment. Dosages and/or frequency of administration of a prescribed SSRI or SNRI may be adjusted to fit within study parameters. Participants may be required to taper a prescribed course of medication in order to maintain eligibility within the study. The Treatment Period consists of three monthly Experimental Sessions and associated Intervening Sessions of integrative behavioral psychotherapy. The Treatment Period lasts approximately 12 weeks. Following the Treatment Period is a Follow-up Period and Study Conclusion. During the Follow-up Period and Study Conclusion, participants complete 4 weeks with no study visits, followed by a Study Conclusion visit.
# This study compares the effects of three blinded Experimental Sessions of psychotherapy in combination with flexible doses of MBDB or placebo administered as described below. Non-drug preparatory and intervening psychotherapy sessions are also included. Patient's weight is determined for dosage calculation. Initial dose is 180 mg unless this will result in a dosage of less than 1.5 mg/kg of patient weight. Initial dose thereby adjusted upward in 50 mg increments to deliver the lowest dose possible of at least 1.5 mg/kg of patient weight. Initial dose for Experimental Session 2 and 3 is cumulative dose calculated by adding the initial dose plus REMS protocol dose used the previous Experimental Session for each patient.
# The primary objective of this study is to evaluate the efficacy and safety of MBDB treatment combined with psychotherapy to treat moderate to severe PTSD compared to identical psychotherapy combined with placebo treatment. […]
SMILES,"Coming Down, time after dose ([1]; adapted from PiHKAL 1991) [min]","Oral MBDB dose, drug activity level Very Strong ([1]; oral) [mg]",frequency of stretched attend postures (SAPs) (Male Sprague-Dawley rats; 10 mg/kg ip),frequency of stretched attend postures (SAPs) (Male Sprague-Dawley rats; 15 mg/kg ip),"frequency of stretched attend postures (SAPs) (Male Sprague-Dawley rats; 30 mg/kg ip, vs vehicle)","frequency of stretched attend postures (SAPs) (Male Sprague-Dawley rats; 30 mg/kg ip, vs vehicle, listed as R MBDB)",dose at which switch to an anxiolytic effect was shown (magnitude of reduction in SAPs) (Male Sprague-Dawley rats) [mg/kg],change in CAPS-5 assessment compared to the placebo group [2],clinician-rated functional impairment score as measured by SDS compared to placebo-treated controls [2],daytime sleepiness as measured by ESS [2],depression as measured by HAM-D compared to placebo-treated controls [2],"frequency of stretched attend postures (SAPs) (Male Sprague-Dawley rats; 5 mg/kg ip, vs vehicle)","frequency of stretched attend postures (SAPs) (Male Sprague-Dawley rats; 30 mg/kg ip, vs vehicle, listed as S MBDB)"
"CCC(Cc1ccc2c(c1)OCO2)NC (stereo not drawn) [MBDB, 1-(benzo[d][1,3]dioxol-5-yl)-N-methylbutan-2-amine]",~90,≥350,,,,,,,,,,,
CC[C@H](Cc1ccc2c(c1)OCO2)NC [R-MBDB],,,produced a consistent level of SAPs similar to the 5 mg/kg,showed a reduction in the number of SAPs compared to lower doses,decreased the frequency of SAPs as effectively as the benzodiazepine chlordiazepoxide,significantly reduced the number of SAPs,15,significant mean reduction,significant improvement,significant improvement,significant improvement,,
CC[C@@H](Cc1ccc2c(c1)OCO2)NC [S-MBDB],,,showed a rapid reduction in total SAPs,showed a reduction in the number of SAPs compared to lower doses,decreased the frequency of SAPs as effectively as the benzodiazepine chlordiazepoxide,,10,significant mean reduction,significant improvement,significant improvement,significant improvement,reached significance,significantly reduced the number of SAPs
